A short description of data set [1]: Dynamic vapor sorption/desorption (DVS), hygroscopicity. It counts as physicochemical. As to conditions: for Hygroscopicity: grade in words, from DVS; for Water uptake (5-95% RH) %: total. How it is done: The active pharmaceutical ingredient (API), 4-bromo-2,5-dimethoxyphenethylamine hydrochloride, is characterized to evaluate its physical properties. The evaluation is performed by X-ray powder diffraction (XRPD), polarized light microscopy (PLM), differential scanning calorimetry (DSC), thermogravimetry (TG), dynamic vapor sorption/desorption (DVS), and/or solubility testing in organic solvents, water, and mixed solvent systems. XRPD data are used to assess crystallinity. PLM data are used to evaluate crystallinity and particle size/morphology. DSC data are used to evaluate melting point, thermal stability, and crystalline form conversion. TG data are used to evaluate if the API is a solvate or hydrate, and to evaluate thermal stability. DVS data are used to evaluate hygroscopicity of the API and if hydrates can be formed at high relative humidity.
The form characterized in FIGS. 1 and 2 is designated as Form A herein. […] A sharp endotherm at 238° C. in the DSC thermogram is attributed to melting.

A short description of data set [2]: Deliquescence at 75% RH at ambient temperature. In kind it is physicochemical.
A short description of data set [3]: Dynamic vapor sorption (DVS) with XRPD of the post-DVS sample. It counts as physicochemical. The note with it: for hygroscopicity based on DVS data / moisture gain by DVS / moisture gain by DVS, equivalent moles of water: 25° C.; for hygroscopicity based on DVS data: 5 to 95% RH; for moisture gain by DVS / moisture gain by DVS, equivalent moles of water: adsorption 5 to 95% RH; for post-DVS XRPD result: XRPD of the post-DVS sample; for DVS desorption weight loss, 85-5% RH: desorption 85-5% RH; for DVS desorption weight loss, 95-85% RH: desorption 95-85% RH; for behaviour on desorption / form change by XRPD of post-DVS sample: desorption 95 to 5% RH; for DVS sorption weight gain, 5-85% RH: sorption 5-85% RH; for DVS sorption weight gain, 85-95% RH: sorption 85-95% RH; for DVS desorption weight loss, 95-5% RH: desorption 95-5% RH; for DVS sorption weight gain, 5-95% RH: sorption 5-95% RH. How it is done:
Dynamic Vapor Sorption (DVS) analysis was carried out using a TA Instruments Q5000 Dynamic Vapor Sorption analyzer. The instrument was calibrated with standard weights and a sodium bromide standard for humidity. Approximately 10-25 mg of sample was loaded into a metal-coated quartz pan for analysis. The sample was analyzed at 25° C. with a maximum equilibration time of one hour in 10% relative humidity (RH) steps from 5 to 95% RH (adsorption cycle) and from 95 to 5% RH (desorption cycle). The movement from one step to the next occurred either after satisfying the equilibrium criterion of 0.01% weight change or, if the equilibrium criterion was not met, after one hour. The percent weight change values were calculated using Microsoft Excel.
(§1) The DVS analysis was carried out using a TA Instruments Q5000 Dynamic Vapor Sorption analyzer. 13.5 mg of sample was loaded into a metal-coated quartz pan for analysis. After equilibration to 5% relative humidity (RH), the sample was analyzed at 25° C. in 10% RH steps from 5 to 95% RH (adsorption cycle) and from 95 to 5% RH (desorption cycle). The movement from one step to the next occurred either after satisfying the equilibrium criterion of 0.01% weight change in 5 minutes or, if the equilibrium criterion was not met, after 90 minutes. The percent weight change values are calculated using Microsoft Excel®.
as §1, with “DVS analyses were” for “DVS analysis was”, “analyzer. Approximately 7-11” for “analyzer. 13.5”, “equilibration at” for “equilibration to”, “values were” for “values are”
as §1, with “analyzer. Approximately 2” for “analyzer. 13.5”, “equilibration at” for “equilibration to”, “values were” for “values are”

The conditions of data set [4]: Slurry.
Source text: The sample was then centrifuged, while still warm, and the mother liquor was decanted. The isolated solids were air-dried and analyzed by XRPD.
Setting [5] is: several days at 75% RH at ambient temperature.

“Also recorded” adds a separate entry of the source. Read-outs that look alike come from different tables or passages of the source.

For the compound 2C-B glycolate, the “Water uptake (5-85% RH) %” value in data set [1] (5-85% RH part of sorption) stood at 0.9%. Also, the “Water uptake (85-95% RH) %” value in data set [1] (85-95% RH part of sorption) was “(5-85), 2.7 (85-95) %”. Also, the “Hygroscopicity: weight gain” value in data set [1] (<85% RH) is “RH: 0.9%”. Also, the “Hygroscopicity: weight gain” value in data set [1] (>85% RH) was “RH: 2.7% gain”. Moreover, the Hygroscopicity entry in data set [1] was “Mod. hygroscopic; <85%”. The “Water uptake (5-95% RH) %” value in data set [1] (5-95% RH) is 3.6%. Moreover, the deliquescence result in data set [2] (at 75% RH) was “Did not deliquesce”. Further, the deliquescence result in data set [2] (setting [5]) is “not observed”. Further, in data set [3], the “hygroscopicity based on DVS data” value is “moderately hygroscopic”; the “moisture gain by DVS” value is 3.6%; the “moisture gain by DVS, equivalent moles of water” value (from here on “moisture gain by DVS … of water”) was found to be 0.7 mol; the “post-DVS XRPD result” value was “Consistent with Glycolate”. In data set [3], the “DVS desorption weight loss, 85-5% RH” value was 85-5% RH: 1.1% loss; the “DVS desorption weight loss, 95-85% RH” value is 95-85% RH: 2.6% loss; the “behaviour on desorption / form change by XRPD of post-DVS sample” value (from here on “behaviour on desorption / form change”) is on record as “form change is not apparent by XRPD”; the “DVS desorption total loss” value was “Total loss: 3.7%”. For the same compound, in data set [3], the “DVS sorption weight gain, 5-85% RH” value is 5-85% RH: 0.9% gain; the “DVS sorption weight gain, 85-95% RH” value is listed as 85-95% RH: 2.7% gain; the “DVS sorption total gain” value is recorded as “Total gain: 3.6%”. The “moisture gain by DVS above 85% RH” value in data set [3] (above 85% RH) is on record as 2.7%.
On to `COc1cc(CCN)c(OC)cc1Br.O=C(O)C(O)C(O)C(=O)O` [2C-B tartrate, 4-bromo-2,5-dimethoxyphenethylamine (2C-B) tartrate], for which the “XRPD result after slurry” value is given as “Tartrate (Form 1)” in data set [4] (ACN, 50° C., 9 days); “Tartrate (Form 1)” in data set [4] (DMF/acetone 50/50, RT); “Tartrate (Form 1)” in data set [4] (EtOAc, 50° C., 9 days); “Tartrate (Form 1) +” in data set [4] (EtOAc/DMSO 71/29, RT); “Tartrate (Form 1)” in data set [4] (EtOH, 50° C., 9 days); “Tartrate (Form 1)” in data set [4] (EtOH/H2O 50/50, aw = 0.89, RT). Moreover, the “XRPD result after slurry” value in data set [4] (EtOH/H2O 80/20, aw = 0.70, RT) is “Tartrate (Form 1)”; in data set [4] (EtOH/H2O 90/10, aw = 0.49, RT) it was “Tartrate (Form 1)”; in data set [4] (IPA, 50° C., 9 days), “Tartrate (Form 1)”; in data set [4] (IPA/H2O 70/30, aw = 0.94, RT), “Tartrate (Form 1)”; in data set [4] (MEK, 50° C., 9 days), “Tartrate (Form 1)”; in data set [4] (MeOH, RT), “Tartrate (Form 1)”. Also, the “XRPD result after slurry” value in data set [4] (MeOH/H2O 95/5, aw = 0.16, RT) is “Tartrate (Form 1)”; in data set [4] (THF/H2O 50/50, aw = 1.00, 5° C.), “Tartrate (Form 1)”; in data set [4] (acetone/H2O 50/50, aw = 0.91, 5° C.), “Tartrate (Form 1)”.
Turning to `COc1cc(CCN)c(OC)cc1Br.O=S(=O)(O)c1ccccc1` [Besylate (Form 1), 2C-B besylate], the “Hygroscopicity: weight gain” value in data set [1] (5-95% RH) was 5-95% RH: 0.7%. For the same compound, the Hygroscopicity result in data set [1] is given as “Slightly”. Besides, the deliquescence result in data set [2] (at 75% RH) is recorded as “Did not deliquesce”. The deliquescence entry in data set [2] (setting [5]) is listed as “not observed”. In data set [3], the “hygroscopicity based on DVS data” value is “slightly hygroscopic”; the “moisture gain by DVS” value was determined as 0.7%; the “moisture gain by DVS … of water” value worked out at 0.2 mol; the “post-DVS XRPD result” value is “Consistent with Besylate (Form 1)”. For the same compound, in data set [3], the “DVS desorption weight loss, 95-5% RH” value is listed as 95-5% RH: 0.7% loss; the “behaviour on desorption / form change” value is given as “does not undergo form conversion”; the “DVS sorption weight gain, 5-95% RH” value is 5-95% RH: 0.7% gain.
As to `COc1cc(CCN)c(OC)cc1Br.O=C(O)CC(O)(CC(=O)O)C(=O)O` [Citrate (Form 2), 2C-B Citrate], the “Hygroscopicity: weight gain” value in data set [1] (5-95% RH) is 5-95% RH: 0.5%. Also, in data set [1], the Hygroscopicity entry is recorded as “Slightly”. Besides, in data set [2] (at 75% RH), the deliquescence result is on record as “Did not deliquesce”. Besides, the deliquescence entry in data set [2] (setting [5]) is “not observed”. In data set [3], the “hygroscopicity based on DVS data” value is recorded as “slightly hygroscopic”; the “moisture gain by DVS” value was determined as 0.5%; the “moisture gain by DVS … of water” value was determined as 0.1 mol; the “post-DVS XRPD result” value is on record as “Consistent with Citrate (Form 2)”. In data set [3], the “DVS desorption weight loss, 95-5% RH” value was 95-5% RH: 0.5% loss; the “behaviour on desorption / form change” value is given as “form change does not occur”; the “DVS sorption weight gain, 5-95% RH” value was 5-95% RH: 0.5% gain.
In the case of `COc1cc(CCN)c(OC)cc1Br.O=C(O)c1cc(O)ccc1O` [Gentisate, 2C-B gentisate], in data set [1] (5-95% RH), the “Hygroscopicity: weight gain” value is recorded as 5-95% RH: 0.2% and the “Water uptake (5-95% RH) %” value is reported as 0.20%. In addition, the Hygroscopicity entry in data set [1] was “Non-hygroscopic;”. Moreover, the deliquescence entry in data set [2] (at 75% RH) is reported as “Did not deliquesce”. Further, the deliquescence entry in data set [2] (setting [5]) is “not observed; also recorded: does not deliquesce”. Moreover, in data set [3], the “hygroscopicity based on DVS data” value is recorded as “non-hygroscopic”; the “moisture gain by DVS” value was 0.2%; the “moisture gain by DVS … of water” value turned out to be 0.05 mol; the “post-DVS XRPD result” value was “Crystalline, consistent”. In data set [3], the “DVS desorption weight loss, 95-5% RH” value was 95-5% RH: 0.2% loss; the “behaviour on desorption / form change” value is “form change does not occur”; the “DVS sorption weight gain, 5-95% RH” value is recorded as 5-95% RH: 0.2% gain.
Consider `COc1cc(CCN)c(OC)cc1Br.CS(=O)(=O)O` [Mesylate, 2C-B mesylate], for which, in data set [1] (<85% RH), the “Hygroscopicity: weight gain” value was “RH: 2.7%”. Besides, the “Hygroscopicity: weight gain” value in data set [1] (>85% RH) is “RH: 4.5% gain”. In data set [1], the Hygroscopicity entry is “Hygroscopic; <85%”. Further, in data set [2] (at 75% RH), the deliquescence result is “Did not deliquesce”. Also, the deliquescence entry in data set [2] (setting [5]) is recorded as “not observed”. Moreover, in data set [3], the “hygroscopicity based on DVS data” value is recorded as “hygroscopic”; the “moisture gain by DVS” value is reported as 7.2%; the “moisture gain by DVS … of water” value was “approximately 1.5 moles”; the “post-DVS XRPD result” value was “Consistent with Mesylate”. Also, in data set [3], the “DVS desorption weight loss, 85-5% RH” value is 85-5% RH: 3.0% loss; the “DVS desorption weight loss, 95-85% RH” value is 95-85% RH: 4.4% loss; the “behaviour on desorption / form change” value is recorded as “form change is not apparent by XRPD”; the “DVS desorption total loss” value was “Total loss: 7.4%”. For the same compound, in data set [3], the “DVS sorption weight gain, 5-85% RH” value is reported as 5-85% RH: 2.7% gain; the “DVS sorption weight gain, 85-95% RH” value was 85-95% RH: 4.5% gain; the “DVS sorption total gain” value is on record as “Total gain: 7.2%”.
